Data from PMC2045673, “Site-specific acetylation of ISWI by GCN5” (BMC Molecular Biology, 2007).

Legend:
Assay in all cases: radiometric HAT assay, SDS-PAGE autoradiography
Format in all cases: biochemical
MOF (HA-MOF) = target: T1, MOF (HA-MOF) (Drosophila melanogaster, UniProt O02193); conditions: labelled compound; co-substrate histones; pH 7.8, 26 °C
T1 construct: HA-tagged recombinant MOF
T1 sequence (O02193 1-827): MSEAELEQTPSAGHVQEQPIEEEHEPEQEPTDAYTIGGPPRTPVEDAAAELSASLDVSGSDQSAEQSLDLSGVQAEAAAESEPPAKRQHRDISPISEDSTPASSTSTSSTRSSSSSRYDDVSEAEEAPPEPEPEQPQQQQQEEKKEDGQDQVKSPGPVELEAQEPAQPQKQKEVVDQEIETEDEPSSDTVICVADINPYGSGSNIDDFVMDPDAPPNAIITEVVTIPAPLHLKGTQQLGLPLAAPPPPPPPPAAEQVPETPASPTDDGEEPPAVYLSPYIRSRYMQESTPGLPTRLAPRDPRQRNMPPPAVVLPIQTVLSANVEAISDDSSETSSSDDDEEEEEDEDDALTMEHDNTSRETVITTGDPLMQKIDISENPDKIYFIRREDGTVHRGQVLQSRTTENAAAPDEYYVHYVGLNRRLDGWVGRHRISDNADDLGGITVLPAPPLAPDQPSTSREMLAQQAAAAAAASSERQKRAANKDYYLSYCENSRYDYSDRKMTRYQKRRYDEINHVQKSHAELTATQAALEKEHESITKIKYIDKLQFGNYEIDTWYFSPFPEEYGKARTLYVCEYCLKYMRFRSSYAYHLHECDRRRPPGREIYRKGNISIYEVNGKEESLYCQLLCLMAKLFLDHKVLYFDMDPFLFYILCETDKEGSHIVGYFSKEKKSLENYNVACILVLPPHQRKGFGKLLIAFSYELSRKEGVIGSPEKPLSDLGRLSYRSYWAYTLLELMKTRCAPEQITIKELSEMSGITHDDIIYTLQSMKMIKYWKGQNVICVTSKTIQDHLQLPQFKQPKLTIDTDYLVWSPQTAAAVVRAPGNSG

p300 (FLAG-p300) = target: T2, p300 (FLAG-p300) (Homo sapiens, UniProt Q09472); conditions: labelled compound; co-substrate histones, ISWI or peptide; pH 7.8, 26 °C
T2 construct: gene EP300; FLAG-tagged recombinant p300
T2 sequence (Q09472 2-2414): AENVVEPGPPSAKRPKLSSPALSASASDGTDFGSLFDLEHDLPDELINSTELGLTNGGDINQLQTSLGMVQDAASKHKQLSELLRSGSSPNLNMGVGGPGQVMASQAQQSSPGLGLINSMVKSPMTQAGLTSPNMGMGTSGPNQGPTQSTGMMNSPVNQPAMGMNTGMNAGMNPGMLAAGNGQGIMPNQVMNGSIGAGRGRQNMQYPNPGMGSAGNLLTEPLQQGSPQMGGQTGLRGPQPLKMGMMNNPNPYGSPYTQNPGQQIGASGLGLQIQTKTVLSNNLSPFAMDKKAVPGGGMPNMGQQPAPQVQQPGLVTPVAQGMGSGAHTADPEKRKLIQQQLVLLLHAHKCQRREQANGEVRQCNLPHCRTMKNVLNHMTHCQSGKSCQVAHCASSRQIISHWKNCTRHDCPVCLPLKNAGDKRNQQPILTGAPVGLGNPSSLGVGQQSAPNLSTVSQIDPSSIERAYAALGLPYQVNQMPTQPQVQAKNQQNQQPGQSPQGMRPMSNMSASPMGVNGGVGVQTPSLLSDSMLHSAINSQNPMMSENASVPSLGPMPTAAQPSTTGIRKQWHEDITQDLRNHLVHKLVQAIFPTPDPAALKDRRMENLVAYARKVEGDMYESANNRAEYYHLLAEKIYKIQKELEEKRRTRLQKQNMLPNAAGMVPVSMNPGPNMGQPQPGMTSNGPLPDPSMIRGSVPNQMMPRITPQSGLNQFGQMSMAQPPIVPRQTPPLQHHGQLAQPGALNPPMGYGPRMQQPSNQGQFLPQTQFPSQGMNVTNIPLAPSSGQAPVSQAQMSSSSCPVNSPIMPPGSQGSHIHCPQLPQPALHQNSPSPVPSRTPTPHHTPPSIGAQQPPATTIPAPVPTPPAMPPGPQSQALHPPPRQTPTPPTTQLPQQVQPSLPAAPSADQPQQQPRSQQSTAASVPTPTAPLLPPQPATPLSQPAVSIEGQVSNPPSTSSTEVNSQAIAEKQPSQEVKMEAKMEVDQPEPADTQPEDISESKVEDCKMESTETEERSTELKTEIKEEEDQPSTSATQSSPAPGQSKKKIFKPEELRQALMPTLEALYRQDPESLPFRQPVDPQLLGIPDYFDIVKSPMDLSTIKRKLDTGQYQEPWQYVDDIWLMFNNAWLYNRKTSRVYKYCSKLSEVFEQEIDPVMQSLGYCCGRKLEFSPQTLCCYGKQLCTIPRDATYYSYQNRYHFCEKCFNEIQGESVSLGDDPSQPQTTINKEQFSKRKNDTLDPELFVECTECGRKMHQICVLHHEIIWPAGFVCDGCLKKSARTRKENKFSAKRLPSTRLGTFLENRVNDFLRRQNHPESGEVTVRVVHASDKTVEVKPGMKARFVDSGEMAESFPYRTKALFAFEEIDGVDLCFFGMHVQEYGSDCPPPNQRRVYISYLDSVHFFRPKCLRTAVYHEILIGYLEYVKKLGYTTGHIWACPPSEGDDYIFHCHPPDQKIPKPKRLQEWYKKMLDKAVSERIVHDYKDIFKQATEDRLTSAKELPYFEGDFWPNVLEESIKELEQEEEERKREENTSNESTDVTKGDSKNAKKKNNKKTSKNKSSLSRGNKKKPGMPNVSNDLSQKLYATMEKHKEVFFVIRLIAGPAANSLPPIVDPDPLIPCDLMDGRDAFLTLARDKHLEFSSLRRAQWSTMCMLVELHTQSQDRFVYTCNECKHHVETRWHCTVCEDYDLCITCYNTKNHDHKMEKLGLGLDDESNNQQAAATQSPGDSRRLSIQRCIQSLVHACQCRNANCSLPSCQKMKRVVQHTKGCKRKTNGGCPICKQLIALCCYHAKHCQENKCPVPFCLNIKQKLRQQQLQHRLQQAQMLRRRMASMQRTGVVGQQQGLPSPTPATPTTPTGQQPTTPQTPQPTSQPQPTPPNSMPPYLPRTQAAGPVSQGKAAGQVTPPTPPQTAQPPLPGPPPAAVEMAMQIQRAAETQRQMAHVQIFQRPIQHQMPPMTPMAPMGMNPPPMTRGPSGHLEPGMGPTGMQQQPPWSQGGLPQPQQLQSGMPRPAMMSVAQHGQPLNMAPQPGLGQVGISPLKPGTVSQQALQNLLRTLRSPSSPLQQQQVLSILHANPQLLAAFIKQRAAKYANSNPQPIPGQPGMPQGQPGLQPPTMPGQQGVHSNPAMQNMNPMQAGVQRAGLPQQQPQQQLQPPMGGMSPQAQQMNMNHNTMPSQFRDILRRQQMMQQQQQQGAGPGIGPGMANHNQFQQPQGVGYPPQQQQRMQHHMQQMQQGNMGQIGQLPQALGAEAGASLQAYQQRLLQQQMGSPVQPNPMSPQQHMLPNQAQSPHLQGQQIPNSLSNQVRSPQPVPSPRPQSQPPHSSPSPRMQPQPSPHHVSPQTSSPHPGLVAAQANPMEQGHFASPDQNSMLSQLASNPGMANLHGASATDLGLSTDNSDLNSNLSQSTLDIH

GCN5 (GST-hGCN5) = target: T3, GCN5 (GST-hGCN5) (Homo sapiens, UniProt Q92830); conditions: labelled compound; co-substrate histones, ISWI or peptide; pH 7.8, 26 °C
T3 construct: gene KAT2A; GST-tagged, recombinant from E. coli
T3 sequence (Q92830 whole entry): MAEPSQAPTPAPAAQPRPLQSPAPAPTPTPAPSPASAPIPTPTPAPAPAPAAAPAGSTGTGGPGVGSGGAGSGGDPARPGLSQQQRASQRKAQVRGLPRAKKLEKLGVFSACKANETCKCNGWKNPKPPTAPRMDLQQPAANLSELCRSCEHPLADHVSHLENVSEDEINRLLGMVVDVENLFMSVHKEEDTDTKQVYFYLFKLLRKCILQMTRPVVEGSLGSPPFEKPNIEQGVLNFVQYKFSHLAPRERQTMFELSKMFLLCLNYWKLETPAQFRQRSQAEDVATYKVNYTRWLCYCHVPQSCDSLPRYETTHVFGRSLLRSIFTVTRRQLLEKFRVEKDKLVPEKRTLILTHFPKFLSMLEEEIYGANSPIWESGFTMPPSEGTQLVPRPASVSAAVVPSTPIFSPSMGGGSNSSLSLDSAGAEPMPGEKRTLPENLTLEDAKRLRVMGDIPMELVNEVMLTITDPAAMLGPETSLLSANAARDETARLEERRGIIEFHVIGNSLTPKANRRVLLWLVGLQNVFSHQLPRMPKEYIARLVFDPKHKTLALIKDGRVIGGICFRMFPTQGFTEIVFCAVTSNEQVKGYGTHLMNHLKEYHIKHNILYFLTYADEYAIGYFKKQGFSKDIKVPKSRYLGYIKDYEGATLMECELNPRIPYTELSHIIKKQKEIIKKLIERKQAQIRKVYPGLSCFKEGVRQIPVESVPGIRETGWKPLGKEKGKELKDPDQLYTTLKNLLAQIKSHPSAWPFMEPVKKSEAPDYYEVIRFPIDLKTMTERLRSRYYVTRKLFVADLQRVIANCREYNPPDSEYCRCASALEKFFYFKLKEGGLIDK

CC(=O)SCCNC(=O)CCNC(=O)[C@H](O)C(C)(C)COP(=O)(O)OP(=O)(O)OC[C@H]1O[C@@H](n2cnc3c(N)ncnc32)[C@H](O)[C@@H]1OP(=O)(O)O [acetyl-CoA]
radiometric HAT assay, SDS-PAGE autoradiography (MOF (HA-MOF)): The histone acetyltransferase activities of recombinant GCN5, p300 and MOF were assayed
radiometric HAT assay, SDS-PAGE autoradiography (p300 (FLAG-p300)): The histone acetyltransferase activities of recombinant GCN5, p300 and MOF were assayed
radiometric HAT assay, SDS-PAGE autoradiography (GCN5 (GST-hGCN5)): The histone acetyltransferase activities of recombinant GCN5, p300 and MOF were assayed
